Assays:
[1] = test system: MYC expression; experiment: Inhibition of MYC expression in MV-4-11 cells; type: cell-based; settings: 4 h; for IC50: QuantiGene 2.0, geometric mean; for Maximum Inhibition (%): maximum inhibition of MYC expression
Method: Pharmacologic inhibition of MYC is achievable through targeting BET bromodomains through small molecule binder or degrader mechanisms. Such inhibitors may have clinical utility given the widespread pathogenetic role of MYC in cancer. See, e.g., Mertz J, et al., “Targeting MYC dependence in cancer by inhibiting BET bromodomains,” (2011) Proc. Natl. Acad. Sci. USA, Vol. 108 (40), pp. 16669-16674.
To determine the inhibition of MYC expression, MV-4-11 cells (ATCC) were plated at 10,000 cells per well in 96-well plates in RPMI1640 media supplemented with 10% fetal bovine serum and 2 mM L-glutamine. Test compounds diluted in DMSO were transferred to the cell plates, keeping final DMSO concentration consistent at 0.1%, and incubated for 4 h at 37° C. Lysis and analysis for MYC expression were carried out using QuantiGene 2.0 reagents (Affymetrix/eBioscience, probe set cat #SA-50182) and following the vendor's instructions. Luminescence was read using an EnVision plate reader (PerkinElmer) and IC50s generated in Genedata Screener using a 4-parameter non-linear regression fit.
Effective degraders will surpass this and inhibit >95% of MYC, thus following the maximum inhibition within this assay provides valuable SAR. Where more than one measurement was performed for the same assay, the value reported is the geometric mean of all values.

[2] = target: BRD4 (Homo sapiens (Human), UniProt O60885); experiment: BRD4 degradation assay in EOL-1 cells, high content fluorescence imaging; type: cell-based; settings: 4 hours; for DC50: BRD4 immunofluorescence, read-out: EOL-1 EC50
Method: PC3 (Steap-1) prostate cancer cells: PC3 (Steap-1) prostate cancer cells (PC3 cells overexpressing the surface protein Steap-1) were seeded on day 1 at a density of 200,000 cells/mL in 45 μl/well in cell plates in a 384 well Greiner/Perkin Elmer Cell Carrier TC Treated plate (part #6007430) in Assay Medium (RPMI, 10% FBS, 2 mM Glutamax). Cells were incubated overnight at 37° C. degrees. On day 2, compounds were serially diluted 3-fold in DMSO spanning the concentrations 10 mM to 8.6 nM, in 384 well clear polypropylene plates (Greiner Cat #781201). DMSO and 10 mM of a control PROTAC (dBET1, as described in WO 2017/024317, p. 235, structure below) (control compound) were added to designated wells. Compounds and controls were diluted 50-fold (2 μl of DMSO stock into 98 μl) into Assay Medium. 5 μl of the diluted compounds was transferred to the cell plates. The final top concentration of the test compounds in the cell plates was 20 μM. Cell plates were incubated at 37° C., for 4 hours. Fixation and permeabilization were carried out using a Biotek EL406 plate washer and dispenser as follows. Cells were fixed by addition of 15 μL of 16% paraformaldehyde (Electron Microscopy Sciences #15710-S) directly to the 50 μL cell culture medium in each well using the peristaltic pump 5 μL cassette on a Biotek EL406 (final concentration of formaldehyde was 3.7% w/v). Samples were incubated 30 minutes. Well contents were aspirated and 50 μL/well of Phosphate Buffered Saline (PBS) containing 0.5% w/v bovine serum albumen, 0.5% v/v Triton X-100 (Antibody Dilution Buffer) was added to each well. Samples were incubated for 30 minutes. Well contents were aspirated and washed 3 times with 100 μL/well of PBS.
EOL-1 cells: The BRD4 degradation assay was performed on EOL-1 cells using the same procedure as described above for PC3 (Steap-1) prostate cancer cells, except EOL-1 cells were seeded at 1,000,000 cells/mL. Following aspiration and washing of the well contents with 100 μL/well of PBS, 40 μL PBS plus 10% normal goat serum was added per well for 20 minutes at room temperature.
For both the PC3 and EOL-1 cell assays, immunofluorescence staining of BRD4 was carried out using a Biotek EL406 plate washer and dispenser as follows. The well supernatant was aspirated from the wells and 25 μL/well of rabbit mAb Anti-BRD4 [EPR5150(2)] abeam 128874 diluted 1:500 in Antibody Dilution Buffer is dispensed. Samples were incubated for 2 hours at room temperature. Samples were washed 4 times with 100 μL/well of PBS. 25 μL/well of secondary antibody solution (Goat Anti-Rabbit IgG, DyLight 488 Conjugated Highly Cross-adsorbed #35553 1:1000) diluted 1:1000 and Hoechst 33342 1 μg/ml diluted in Antibody Dilution Buffer) were dispensed into each well. 16 wells of the plate, which were designated as ‘no primary antibody” wells, received only Antibody Dilution Buffer (without anti-BRD4 antibody). Samples were incubated for 2 hours at room temperature. Samples were washed 3 times with 100 μL/well of PBS using a Biotek EL406. Quantitative fluorescence imaging of BRD4 was carried out using a Phenix (Perkin Elmer). Fluorescence images of the samples (Channel 1: Hoechst33342 (DNA stain); Channel 2: 488 nm (BRD4 stain)) were acquired. Channel 1 (DNA stain) was used to define the “Region of Interest” (ROI) nuclear region. Measurements of BRD4 average immunofluorescence intensity within the ROI (nuclear region), were made on a per cell basis and averaged over all the measured cells. Data analysis was carried out using Genedata Screener Software, with DMSO and “no primary antibody” samples being used to define the 0% and 100% changes in BRD4. The “Robust Fit” method was used to define the inflexion point of curve (EC50) and the plateau of the maximal effect (Sinf). The Sinf value reports degradation as percent change in protein level, so complete loss of the protein target is −100%. […]

SMILES	IC50 [1]	Maximum Inhibition (%) [1]	DC50 [2]	EOL-1 Sinf (%) ([2]; maximum degradation, percent change in protein level (-100% = complete loss))
Cc1ncsc1-c1ccc([C@]2(C)NC(C3C[C@@H](O)CN3C(=O)C(c3cc(OCCCCCNC(=O)c4cc5c(cc4CS(C)(=O)=O)-c4cn(C)c(=O)c6[nH]cc(c46)CN5c4ncc(F)cc4F)no3)C(C)C)=NC2=O)cc1 (single isomer, unassigned) [Example 1001.2]	0.00171 µM	98.4%	0.000865 µM	−96.4%
Cc1ncsc1-c1ccc([C@]2(C)NC(C3C[C@@H](O)CN3C(=O)C(c3cc(OCCCCCNC(=O)c4cc5c(cc4CS(C)(=O)=O)-c4cn(C)c(=O)c6[nH]cc(c46)CN5c4ncc(F)cc4F)no3)C(C)C)=NC2=O)cc1 (single isomer, unassigned) [Example 1001.3]	0.0274 µM	79.2%	> 20 µM	–
Cc1ncsc1-c1ccc([C@]2(C)NC(C3C[C@@H](O)CN3C(=O)[C@@H](NC(=O)CCCCCCCCCCNC(=O)c3cc4c(cc3CS(C)(=O)=O)-c3cn(C)c(=O)c5[nH]cc(c35)CN4c3ncc(F)cc3F)C(C)(C)C)=NC2=O)cc1 (single isomer, unassigned) [Example 1005.1]	–	–	> 20 µM	–
Cc1ncsc1-c1ccc([C@]2(C)NC(C3C[C@@H](O)CN3C(=O)C(c3cc(OCCCCCNC(=O)c4cc5c(cc4CS(C)(=O)=O)-c4cn(C)c(=O)c6[nH]cc(c46)CN5c4ncc(F)cc4F)no3)C(C)C)=NC2=O)cc1 (single isomer, unassigned) [Example 1001.1]	0.0174 µM	82.3%	> 20 µM	–
